Test results as given in patent EP4427759A1, “TRACEABLE CHIMERIC ANTIGEN RECEPTOR CELL” (Eberhard-Karls-Universität Tübingen, priority 2023, dated 2024).

How the values were obtained:
HCT116 AdCAR xenografts = test: HCT116 AdCAR xenograft model, PET/MR and ex vivo biodistribution by gamma-counting; assay type: in vivo, NOD.CB17-Prkdcscid/J mice
Procedure: (§1) For the xenograft model, 5 × 10^6 cells/mL cells were injected. Five NOD.CB17-Prkdcscid/J were injected with HCT116 WT, and five additional mice were injected with HCT116 AdCAR subcutaneously into the right flank in a mixture of 1:1 Matrigel and PBS (200 µL per mouse) with a 1 mL syringe (30G canula). Afterwards the tumors grew for approximately two weeks before PET and MR measurements.
(§2) For the xenograft model a one-hour dynamic PET scan was performed. The mice were anaesthetized with isoflurane (initially 5%, then 1.5-2%) and a catheter was placed into the tail vein. The mice were placed onto the scanner bed and the body was centered into the field of view (FOV). Mice were injected with13.6 ± 0.35 MBq of [^18F]biotin3FB on average at the beginning of the PET scan and measured for 1h. Afterwards, MR scans were performed to gain anatomical information using an TurboRare spin-echo sequence. After the scans, the mice were sacrificed, and the organs were collected to quantify radiotracer uptake by ex vivo gamma-counting.
(§3) Reconstruction and analysis of the acquired PET/MR data was performed with Inveon Acquisition Workplace and Inveon Research Workplace (IRW), respectively, using dynamic framing and an ordered subset expectation maximization (OSEM) 3D algorithm. For the second part of the experiment statistic framing was used. Regions of interest (ROIs) were drawn under consideration of the acquired MR images and co-registered with the PET data to obtain time-activity curves (TACs).

Jurkat AdCAR cells = test: Jurkat model, static PET/MR and ex vivo biodistribution; assay type: in vivo, mice; conditions: Jurkat AdCAR vs Jurkat CTRL i.p.; day 1, 3 and 7 after cell injection; 1 h resting uptake
Procedure: Five mice were injected with 1 × 10^7 cells/mL Jurkat LucGFP (CTRL), and five additional mice were injected with 1 × 10^7 cells/mL Jurkat aCAR in 200µl PBS into the peritoneal cavity with a 1 mL syringe (30G canula).
For the Jurkat model a ten-minute static PET scan was performed. The mice were anaesthetized with isoflurane (initially 5%, then 1.5-2) and a catheter was placed into the tail vein. The mice were injected with 13.6 ± 0.24 MBq of [^18F]biotin3FB on average and afterwards placed in an isoflurane box for a one-hour resting uptake. After 1 h, the mice were placed onto the scanner bed, the body was centered into the FOV, and a 10 min PET scan was performed. Afterwards, MR scans were performed as described above. The PET and MR measurements took place on day 1, 3 and 7 after cell injection. When the measurements on the 7th day were finished, the mice were sacrificed and uptake in spleen, lymph nodes, muscle and blood were quantified by ex vivo gamma-counting.
(§4) Reconstruction and analysis of the acquired PET/MR data was performed with Inveon Acquisition Workplace and Inveon Research Workplace (IRW), respectively, using dynamic framing and an ordered subset expectation maximization (OSEM) 3D algorithm. For the second part of the experiment statistic framing was used. […]

[1] = one-hour dynamic PET scan, time activity curves of organs; assay type: in vivo, NOD.CB17-Prkdcscid/J mice
Procedure: as §2, §3

HCT116 CTRL xenografts = test: HCT116 control xenograft model, ex vivo biodistribution by gamma-counting; assay type: in vivo, NOD.CB17-Prkdcscid/J mice; conditions: gamma-counting after 1 h dynamic PET scan, n = 5
Procedure: as §1, §2, §4

[2] = ex vivo biodistribution, xenograft model

## [^18F]biotin3fluorobenzoate [[^18F]biotin3FB]
HCT116 AdCAR xenografts; AdCAR expressing xenografts, gamma-counting after 1 h dynamic PET scan, n = 5
  uptake in xenografts, ex vivo biodistribution analysis: 4.59 % ID/g
HCT116 AdCAR xenografts; P=0.0159, Mann-Whitney test, n = 5 per group
  tumor-to-muscle ratio (TMR), AdCAR xenografts compared to control xenografts: significantly higher
HCT116 AdCAR xenografts; p = 0.0050, unpaired t test, n = 5 per group
  absolute tumor uptake, AdCAR xenografts compared to control xenografts: significantly higher
Jurkat AdCAR cells
  difference between AdCAR expressing cells and control cells (PET/MR, spleen uptake): no difference
[1]; brain, mice with HCT116 AdCAR xenografts
  SUVpeak(aCAR), brain TAC: 0.54
[1]; brain, mice with HCT116 CTRL xenografts
  SUVpeak(CTRL), brain TAC: 0.45
[1]; calculated from the heart TAC, i.v. tail vein
  blood half-life: 2.3 min
[1]; [2]
  radiotracer uptake in the brain: Almost no uptake
  radiotracer uptake in the kidney: High radiotracer uptake
HCT116 CTRL xenografts
  uptake in xenografts, ex vivo biodistribution analysis: 0.73 % ID/g
